The target of one assay is M3 muscarinic receptor (Homo sapiens, UniProt P20309). The assay can be described thus: inhibition of forskolin-stimulated cAMP, M3 CHO cells (M3Gi). The class given is cell-based. Further details: host or cells: CHO cells, stably transfected. The following applies: for Emax: CHO; for Emax / EC50 / τ / RAi / Kd: M3Gi (↓cAMP); for Emax / EC50 / τ / Kd: Table 8; for effect on forskolin-stimulated production of cAMP: M3, non-preferential response, in words; for RAi: Table 8, relative to carbachol; for Kd: read-out: pKA (converted). The procedure: Since activation of phospholipase C (PLC) via M2 and M4 receptors is weak, cells were transferred with G15 G-protein to facilitate coupling.
To determine level of cAMP, cells in suspension were pre-incubated for 1 h with 0.4 μM [^3H]adenine, washed, and incubated for 10 min in the presence of isobutylmethylxanthine and 10 μM forskolin. […] Incubation was ended by addition of 0.2 ml of 2.5 M HCl to the samples. Samples were applied to alumina columns (1.5 g of alumina per column), washed with 2 ml ammonium acetate (pH=7.0) and eluted from columns with 4 ml ammonium acetate and measured by liquid scintillation spectrometry. […] The incubation was stopped by addition of 0.5 ml of chloroform methanol HCl mixture (2:1:0.1). After separation of water and organic phases, 0.6 ml of water phase was applied to Dowex columns (1.5 g of Dowex per column), washed by 20 ml of 60 mM ammonium formate/5 mM sodium borate buffer and eluted from columns with 4 ml of 1M ammonium formate/0.1 formic acid buffer and measured by liquid scintillation spectrometry.
Measurements of the production of cAMP and inositol phosphates: Levels of second messengers cAMP and inositol phosphates were determined in radiochemical chromatography assays as described previously. To determine level of cAMP, cells in suspension were pre-incubated for 1 h with 0.4 μM [^3H]adenine, washed, and incubated for 10 min in the presence of isobutylmethylxanthine and 10 μM forskolin. […] Incubation was ended by addition of 0.2 ml of 2.5 M HCl to the samples. Samples were applied to alumina columns (1.5 g of alumina per column), washed with 2 ml ammonium acetate (pH=7.0) and eluted from columns with 4 ml ammonium acetate and measured by liquid scintillation spectrometry. […] For this purpose, new CHO cell lines stably expressing promiscuous G15 G-protein and M2 or M4 receptor were generated by transfection with pCMV/hygro vector and hygromycin selection. To determine the rate of formation of inositol phosphates IPX, suspended cells were pre-incubated with 0.1 μM [^3H]myo-inositol for 60 min, washed, and incubated with 10 mM LiCl for 15 min. […] The incubation was stopped by addition of 0.5 ml of chloroform methanol HCl mixture (2:1:0.1). After separation of water and organic phases, 0.6 ml of water phase was applied to Dowex columns (1.5 g of Dowex per column), washed by 20 ml of 60 mM ammonium formate/5 mM sodium borate buffer and eluted from columns with 4 ml of 1M ammonium formate/0.1 formic acid buffer and measured by liquid scintillation spectrometry.
For bi-phasic response, curves were inhibitory and stimulatory phase were fitted separately. Operational Model of Functional Agonism
[formula] where y is functional response at concentration of tested compound x, EMAX is maximal response of the system, KA is equilibrium dissociation constant and nH is slope factor. Eq. 5 was fitted to data from functional experiments. Eq. 5 was fitted to data by the two-step procedure described earlier. […] In the second step, Eq. 5 with EMAX fixed to the value determined in the first step was fitted to individual experimental data sets. Relative Intrinsic Activity
Muscarinic receptors are also able to stimulate non-preferential signalling pathways.

A further assay addresses T1, M4 muscarinic receptor (Homo sapiens, UniProt P08173).
T1 sequence (P08173 1-479): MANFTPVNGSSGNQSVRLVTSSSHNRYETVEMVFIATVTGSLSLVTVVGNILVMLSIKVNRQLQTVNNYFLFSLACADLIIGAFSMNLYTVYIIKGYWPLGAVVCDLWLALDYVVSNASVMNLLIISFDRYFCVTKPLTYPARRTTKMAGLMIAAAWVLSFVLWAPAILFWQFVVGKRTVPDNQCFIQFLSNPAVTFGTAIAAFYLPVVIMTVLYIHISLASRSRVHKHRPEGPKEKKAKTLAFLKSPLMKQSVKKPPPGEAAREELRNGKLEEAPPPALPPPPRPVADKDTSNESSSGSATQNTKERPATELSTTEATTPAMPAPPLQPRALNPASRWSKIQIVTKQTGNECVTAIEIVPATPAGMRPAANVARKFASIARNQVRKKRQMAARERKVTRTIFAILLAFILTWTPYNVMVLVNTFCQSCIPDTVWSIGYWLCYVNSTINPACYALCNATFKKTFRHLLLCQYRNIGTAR
The assay is described as follows: accumulation of cAMP at PTX-treated CHO cells expressing M4. The class given is cell-based. Also on record: host or cells: CHO cells, stably transfected. Conditions: forskolin-stimulated and basal, in words. The procedure:
To exclude the possibility that activation of the non-preferential Gs pathway was obscured by activation of the preferential Gi/o pathway, accumulation of cAMP was measured in CHO cells expressing M2 or M4 receptors where Gi/o G-proteins were inactivated by pertussis toxin (PTX) treatment (FIG. 4).
Cell culture and membrane preparation: Chinese hamster ovary (CHO) cells stably transfected with the genes of individual human variants of muscarinic receptors were purchased from Missouri S&T cDNA Resource Center (Rolla, Mo., USA). Fresh primary cell culture of smooth muscle cells (SMC) from rat aorta prepared as previously described was kindly provided by Dr. Lucie Bačáková. Primary culture of SMCs was grown to confluency in 75 cm^2 flasks in Dulbecco's modified Eagle's medium supplemented with 10% fetal bovine serum. Up to 6-times, 2 million of cells were sub-cultured. […]
Measurements of the production of cAMP and inositol phosphates: Levels of second messengers cAMP and inositol phosphates were determined in radiochemical chromatography assays as described previously. […] Samples were applied to alumina columns (1.5 g of alumina per column), washed with 2 ml ammonium acetate (pH=7.0) and eluted from columns with 4 ml ammonium acetate and measured by liquid scintillation spectrometry. […] After separation of water and organic phases, 0.6 ml of water phase was applied to Dowex columns (1.5 g of Dowex per column), washed by 20 ml of 60 mM ammonium formate/5 mM sodium borate buffer and eluted from columns with 4 ml of 1M ammonium formate/0.1 formic acid buffer and measured by liquid scintillation spectrometry.
To exclude the possibility that activation of the non-preferential […] pathway was obscured by activation of the preferential Gi/o pathway, accumulation of cAMP was measured in CHO cells expressing M2 or M4 receptors where Gi/o G-proteins were inactivated by pertussis toxin (PTX) treatment (FIG. 11). […]

Chain of M3 muscarinic receptor (P20309 whole entry): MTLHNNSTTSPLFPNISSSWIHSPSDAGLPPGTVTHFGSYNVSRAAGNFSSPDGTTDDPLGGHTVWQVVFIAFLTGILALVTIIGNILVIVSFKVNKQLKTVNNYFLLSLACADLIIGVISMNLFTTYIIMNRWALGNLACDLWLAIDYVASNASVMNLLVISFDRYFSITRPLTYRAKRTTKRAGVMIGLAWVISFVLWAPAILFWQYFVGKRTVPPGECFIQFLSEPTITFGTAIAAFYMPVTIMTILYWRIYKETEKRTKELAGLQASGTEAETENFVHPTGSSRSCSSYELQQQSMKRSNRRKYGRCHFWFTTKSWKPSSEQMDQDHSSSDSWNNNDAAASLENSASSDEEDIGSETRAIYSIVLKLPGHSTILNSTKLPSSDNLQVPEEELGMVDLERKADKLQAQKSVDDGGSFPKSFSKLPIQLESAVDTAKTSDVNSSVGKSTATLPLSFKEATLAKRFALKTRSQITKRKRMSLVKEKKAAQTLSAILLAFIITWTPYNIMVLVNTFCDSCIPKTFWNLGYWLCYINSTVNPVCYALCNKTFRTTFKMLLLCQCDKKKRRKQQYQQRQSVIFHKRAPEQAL

A word on the Emax: it is the maximal effect, on the per cent scale that the assay sets. In general, EC50 refers to the midpoint of the concentration-response curve. Consider `C1=CCN(Cc2cccs2)CC1.Cl` [Compound 6A, 1-[(thiophen-2-yl)methyl]-1,2,3,6-tetrahydropyridin-1-ium chloride], for which, at M3 muscarinic receptor, the Emax was found to be 13 ± 1%, the “effect on forskolin-stimulated production of cAMP” value is listed as “inhibited cAMP production”, the EC50 is 7.76 µM and the τ was 0.17 ± 0.02. In addition, on M3 muscarinic receptor, the RAi entry is listed as “+inf” and the Kd is 10 µM. Further, the “change in accumulation of cAMP” value at M4 muscarinic receptor is recorded as “did not change cAMP levels”.
Regarding `C[N+]1(Cc2cccs2)CC=CCC1.[I-]` (stereo not drawn) [Compound 7A, 1-methyl-1-[(thiophen-2-yl)methyl]-1,2,3,6-tetrahydropyridin-1-ium iodide], on M3 muscarinic receptor, the Emax was 16 ± 1%, the “effect on forskolin-stimulated production of cAMP” value is listed as “inhibited cAMP production”, it took 8.71 µM to reach a half-maximal effect (EC50) and the τ is recorded as 0.22 ± 0.02. For the same compound, at M3 muscarinic receptor, the RAi entry is reported as “+inf” and the Kd was 10 µM. Besides, the “change in accumulation of cAMP” value at M4 muscarinic receptor was “did not change cAMP levels”.
Take `C[N+](C)(C)CCOC(N)=O` [carbachol, reference compound]: at M4 muscarinic receptor, the “change in accumulation of cAMP” value is on record as “about two-fold increase”.

The values are drawn from patent US11591323B2, “Muscarinic agonists as non-steroidal and non-opioid analgesics and methods of use thereof” (Barry University, priority 2019, dated 2023).
